Data: patent US20120129842A1, “BISTHIAZOLE INHIBITORS OF PRO-MATRIX METALLOPROTEINASE ACTIVATION” (priority 2010, published 2012)
pIC50, pKd: −log10 of the molar value. Where a name gives a salt, the structure may show the parent alone.

How the values were obtained:
[1] = biological target: T1, full-length proMMP9(1-707) (SEQ ID NO:1) (Homo sapiens, UniProt P14780, R574P); experiment: proMMP9/MMP3 P126 Activation Assay; format: biochemical; conditions: 20 nM proMMP9, 20 nM MMP3, 80 min 37° C.
T1 construct: made in house; host or cells: HEK293 (proMMP9, secreted); E. coli (MMP3)
T1 sequence (P14780 20-707 R574P): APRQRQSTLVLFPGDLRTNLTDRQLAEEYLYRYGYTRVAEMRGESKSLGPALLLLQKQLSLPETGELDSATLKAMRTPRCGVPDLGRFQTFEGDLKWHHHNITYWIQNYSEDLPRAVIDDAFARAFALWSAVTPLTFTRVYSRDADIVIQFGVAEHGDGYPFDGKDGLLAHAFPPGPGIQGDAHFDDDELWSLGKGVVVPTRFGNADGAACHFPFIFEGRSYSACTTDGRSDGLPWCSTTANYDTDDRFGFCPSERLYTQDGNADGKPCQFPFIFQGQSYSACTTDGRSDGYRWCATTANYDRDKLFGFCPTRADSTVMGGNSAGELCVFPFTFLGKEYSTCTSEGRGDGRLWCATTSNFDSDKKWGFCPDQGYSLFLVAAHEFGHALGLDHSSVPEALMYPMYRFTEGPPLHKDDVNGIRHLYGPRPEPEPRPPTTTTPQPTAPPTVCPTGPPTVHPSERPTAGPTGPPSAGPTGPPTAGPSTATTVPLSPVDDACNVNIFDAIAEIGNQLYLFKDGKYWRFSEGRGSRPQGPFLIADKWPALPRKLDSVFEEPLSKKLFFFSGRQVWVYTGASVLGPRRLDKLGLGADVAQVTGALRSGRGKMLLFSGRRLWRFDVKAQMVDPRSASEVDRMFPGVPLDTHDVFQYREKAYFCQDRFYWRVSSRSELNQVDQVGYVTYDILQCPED
Description: The reaction volume was 50 μL. […] Reactivity of residual MMP3 towards P-126 substrate was minimal under these conditions.

[2] = biological target: T2, proMMP9(67-444;ΔFnII) (SEQ ID NO:5) (Homo sapiens, UniProt P14780, DEL216-390); experiment: ThermoFluor binding assay with proMMP9(67-444;ΔFnII); conditions: pH 7.0
T2 construct: start methionine (N); made in house; host or cells: E. coli BL21(DE3) RIL
T2 sequence (P14780 with tags, fused parts or gaps DEL216-390): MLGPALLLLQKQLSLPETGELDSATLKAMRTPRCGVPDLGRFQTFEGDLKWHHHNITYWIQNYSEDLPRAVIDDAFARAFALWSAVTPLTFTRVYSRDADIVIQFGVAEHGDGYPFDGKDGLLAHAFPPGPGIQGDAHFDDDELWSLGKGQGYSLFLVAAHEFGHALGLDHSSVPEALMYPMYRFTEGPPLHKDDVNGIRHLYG
Summary of the method: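 Thermal shift binding with 3.5 μM proMMP9(67-444;ΔFnII) and 50 μM 1,8-ANS in 50 mM HEPES pH 7.0, 100 mM NaCl, 2.5 mM MgCl2, 300 μM CaCl2, 0.001% Tween-20, with serially diluted compound. Heated 40 to 90° C at 1° C/min; fluorescence-derived Tm fitted using DSC/ThermoFluor thermodynamic parameters.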

[3] = biological target: proMMP13(1-268) (SEQ ID NO:7) (Homo sapiens, UniProt P45452); experiment: ThermoFluor binding assay with proMMP13(1-268); set-up: 6xHis (C); made in house; conditions: pH 7.0
Summary of the method: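 Thermal shift binding with 3.5 μM protein and 25 μM 1,8-ANS in 50 mM HEPES pH 7.0, 100 mM NaCl, 0.001% Tween-20, 2.5 mM MgCl2, 300 μM CaCl2. Samples were heated 40 to 90 °C at 1 °C/min, fluorescence read at 500 nm. Tm shifts across an 11-point DMSO dilution series were fitted with DSC-derived thermodynamic parameters.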

[4] = biological target: T3, proMMP9(20-445;ΔFnII) (SEQ ID NO:6) (Homo sapiens, UniProt P14780, DEL216-390); experiment: ThermoFluor binding assay with proMMP9(20-445;ΔFnII); conditions: pH 7.0
T3 construct: start methionine (N); made in house; host or cells: E. coli BL21(DE3) RIL
T3 sequence (P14780 with tags, fused parts or gaps DEL216-390): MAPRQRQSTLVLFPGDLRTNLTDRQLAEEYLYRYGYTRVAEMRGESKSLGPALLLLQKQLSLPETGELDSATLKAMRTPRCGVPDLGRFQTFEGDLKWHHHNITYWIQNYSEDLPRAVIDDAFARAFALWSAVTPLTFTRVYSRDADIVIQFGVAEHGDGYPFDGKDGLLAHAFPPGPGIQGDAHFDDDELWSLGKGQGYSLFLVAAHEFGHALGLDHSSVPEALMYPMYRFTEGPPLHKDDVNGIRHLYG
Summary of the method: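 proMMP9(20-445;ΔFnII) at 2.8 μM with 50 μM 1,8-ANS in 50 mM HEPES pH 7.0, 100 mM NaCl, 0.001% Tween-20, 2.5 mM MgCl2, 300 μM CaCl2; compounds serially diluted in DMSO. Heated 40–90 °C at 1 °C/min, fluorescence read at 500±25 nm. Tm fit by standard equations; binding fit using DSC/TF-derived thermodynamic parameters.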

Row | pIC50 [1] | pKd [2] | pKd [3] | pKd [4] | SMILES
1 | 5.05 | 4.92 | 4.55 | 5.11 | COc1c(F)cc(C(N)=O)cc1Nc1nc(-c2sc(C)nc2C)cs1 [Example 34, 3-(2′,4′-Dimethyl-[4,5′]bithiazolyl-2-ylamino)-5-fluoro-4-methoxy-benzamide]
2 | 6.17 | 4.57 | 4.96 | 6.07 | COc1cc(C)c(C(N)=O)cc1Nc1nc(-c2sc(C)nc2C)cs1 [Example 36, 5-(2′,4′-Dimethyl-[4,5′]bithiazolyl-2-ylamino)-4-methoxy-2-methyl-benzamide.TFA]
3 | 6.12 | 5.85 | < 4.02 | 5.96 | COc1ccc(C#N)cc1Nc1nc(-c2sc(C)nc2C)cs1 [Example 39, 3-(2′,4′-Dimethyl-[4,5′]bithiazolyl-2-ylamino)-4-methoxy-benzonitrile.TFA]
4 | 6.05 | 6.51 | 5.82 | 6.00 | COc1ccc(C#N)cc1Nc1nc(-c2sc(N)nc2C)cs1 [Example 40, 3-(2′-Amino-4′-methyl-[4,5′]bithiazolyl-2-ylamino)-4-methoxy-benzonitrile.HBr]
5 | 6.12 | 6.24 | 6.08 | 6.23 | CC(=O)Nc1nc(C)c(-c2csc(Nc3cc(S(C)(=O)=O)ccc3OC(C)C)n2)s1 [Example 43, N-[2-(2-Isopropoxy-5-methanesulfonyl-phenylamino)-4′-methyl-[4,5]bithiazolyl-2′-yl]-acetamide.TFA]
6 | 6.39 | 6.62 | 7.15 | 7.14 | Cc1nc(N)sc1-c1csc(Nc2cc(S(C)(=O)=O)ccc2OC(C)C)n1 [Example 44, N^2-(2-Isopropoxy-5-methanesulfonyl-phenyl)-4′-methyl-[4,5′]bithiazolyl-2,2′-diamine.TFA]
7 | 6.08 | 6.01 | 6.70 | 6.62 | Cc1nc(C)c(-c2csc(Nc3cc(S(C)(=O)=O)ccc3OC(C)C)n2)s1 [Example 45, (2′,4′-Dimethyl-[4,5′]bithiazolyl-2-yl)-(2-isopropoxy-5-methanesulfonyl-phenyl)-amine.TFA]
8 | 5.96 | 5.92 | 5.26 | 5.85 | CCOc1ccc(C(=O)O)cc1Nc1nc(-c2sc(N)nc2C)cs1 [Example 46, 3-(2′-Amino-4′-methyl-[4,5′]bithiazolyl-2-ylamino)-4-ethoxy-benzoic acid.HBr]
9 | 6.51 | 6.17 | 5.62 | 5.74 | CCOc1ccc(C(=O)O)cc1Nc1nc(-c2sc(C)nc2C)cs1 [Example 47, 3-(2′,4′-Dimethyl-[4,5′]bithiazolyl-2-ylamino)-4-ethoxy-benzoic acid.HBr]
10 | 5.85 | 5.43 | 4.20 | 4.64 | CCOc1ccc(C(=O)O)cc1Nc1nc(-c2sc(NC(C)=O)nc2C)cs1 [Example 48, 3-(2′-Acetylamino-4′-methyl-[4,5′]bithiazolyl-2-ylamino)-4-ethoxy-benzoic acid.HBr]
11 | 5.52 | 5.60 | 5.21 | 5.39 | CCS(=O)(=O)c1ccc(OC)c(Nc2nc(-c3sc(NC(C)=O)nc3C)cs2)c1 [Example 49, N-[2-(5-Ethanesulfonyl-2-methoxy-phenylamino)-4′-methyl-[4,5]bithiazolyl-2′-yl]-acetamide.TFA]
12 | 5.39 | 5.59 | 5.59 | 5.89 | CCS(=O)(=O)c1ccc(OC)c(Nc2nc(-c3sc(C)nc3C)cs2)c1 [Example 50, (2′,4′-Dimethyl-[4,5′]bithiazolyl-2-yl)-(5-ethanesulfonyl-2-methoxy-phenyl)-amine.TFA]
13 | 5.39 | 5.52 | 5.72 | 5.96 | CCS(=O)(=O)c1ccc(OC)c(Nc2nc(-c3sc(N)nc3C)cs2)c1 [Example 51, N^2-(5-Ethanesulfonyl-2-methoxy-phenyl)-4′-methyl-[4,5′]bithiazolyl-2,2′-diamine.TFA]
14 | 5.47 | 5.80 | 5.70 | 6.00 | COc1ccc(S(N)(=O)=O)cc1Nc1nc(-c2sc(C)nc2C)cs1 [Example 54, 3-(2′,4′-Dimethyl-[4,5′]bithiazolyl-2-ylamino)-4-methoxy-benzenesulfonamide.TFA]
15 | 6.13 | 5.77 | 5.01 | 5.60 | COc1ccc(C(=O)O)cc1Nc1nc(-c2sc(N)nc2C)cs1 [Example 55, 3-(2′-Amino-4′-methyl-[4,5′]bithiazolyl-2-ylamino)-4-methoxy-benzoic acid.HBr]
16 | 5.72 | 5.77 | < 4.02 | 4.96 | COc1ccc(C(=O)O)cc1Nc1nc(-c2sc(NC(C)=O)nc2C)cs1 [Example 57, 3-(2′-Acetylamino-4′-methyl-[4,5′]bithiazolyl-2-ylamino)-4-methoxy-benzoic acid.HBr]
17 | 5.12 | 5.57 | 4.70 | 5.70 | COc1ccc(C(=O)NCc2ccccc2)cc1Nc1nc(-c2sc(NC(C)=O)nc2C)cs1 [Example 59, 3-(2′-Acetylamino-4′-methyl-[4,5′]bithiazolyl-2-ylamino)-N-benzyl-4-methoxy-benzamide.TFA]
18 | 6.46 | 6.96 | 7.15 | 7.24 | Cc1nc(N)sc1-c1csc(Nc2cc(S(N)(=O)=O)ccc2OC(C)C)n1 [Example 60, 3-(2′-Amino-4′-methyl-[4,5′]bithiazolyl-2-ylamino)-4-isopropoxy-benzenesulfonamide.TFA]
19 | 6.42 | 6.85 | 6.96 | 7.16 | Cc1nc(N2CCN(C)CC2)sc1-c1csc(Nc2cc(S(N)(=O)=O)ccc2OC(C)C)n1 [Example 61, 4-Isopropoxy-3-[4′-methyl-2′-(4-methyl-piperazin-1-yl)-[4,5′]bithiazolyl-2-ylamino]-benzenesulfonamide.TFA]
20 | 5.82 | 6.17 | 6.80 | 6.52 | Cc1nc(C)c(-c2nc(Nc3cc(S(N)(=O)=O)ccc3OC(C)C)sc2F)s1 [Example 62, 3-(5-Fluoro-2′,4′-dimethyl-[4,5′]bithiazolyl-2-ylamino)-4-isopropoxy-benzenesulfonamide.TFA]
21 | 6.12 | 6.10 | 5.89 | 6.28 | CC(=O)Nc1nc(C)c(-c2csc(Nc3cc(S(N)(=O)=O)ccc3OC(C)C)n2)s1 [Example 63, N-[2-(2-Isopropoxy-5-sulfamoyl-phenylamino)-4′-methyl-[4,5′]bithiazolyl-2′-yl]-acetamide.TFA]
22 | 5.31 | 5.74 | 5.59 | 5.55 | CNC(=O)c1ccc(OC)c(Nc2nc(-c3sc(N)nc3C)cs2)c1 [Example 66, 3-(2′-Amino-4′-methyl-[4,5′]bithiazolyl-2-ylamino)-4-methoxy-N-methyl-benzamide.TFA]
23 | 7.01 | 6.26 | 5.08 | 6.49 | COc1ccc([N+](=O)[O-])cc1Nc1nc(-c2sc(NC(C)=O)nc2C)cs1 [Example 68, N-[2-(2-Methoxy-5-nitro-phenylamino)-4′-methyl-[4,5′]bithiazolyl-2′-yl]-acetamide.TFA]
24 | 5.85 | 5.96 | 4.60 | 5.32 | COc1ccc(N)cc1Nc1nc(-c2sc(NC(C)=O)nc2C)cs1 [Example 69, N-[2-(5-Amino-2-methoxy-phenylamino)-4′-methyl-[4,5′]bithiazolyl-2′-yl]-acetamide]
25 | 6.34 | 6.39 | 5.96 | 6.60 | CCOc1ccc(S(N)(=O)=O)cc1Nc1nc(-c2sc(C)nc2C)cs1 [Example 70, 3-(2′,4′-Dimethyl-[4,5′]bithiazolyl-2-ylamino)-4-ethoxy-benzenesulfonamide.HCl]
